Measurements: ChEMBL document CHEMBL1201862, “PubChem BioAssay data set” (2004)
Several values for one entry are separate records, joined by “and”; a condition that tells them apart may be missing. Equal entries are not always repeated. Activity calls are given as the source filed them.

Assays:
[1] = molecular target: Heat shock protein HSP 90-alpha (Homo sapiens, UniProt P07900); format: functional, organism-based
[2] = molecular target: T1, Delta-type opioid receptor (Homo sapiens, UniProt P41143); test: HTS Image-Based Screen for Antagonists of the DOR Receptor. [Related pubchem assays (depositor defined):AID1777, AID1785, AID1786, AID2133]; format: functional
T1 sequence (P41143 whole entry): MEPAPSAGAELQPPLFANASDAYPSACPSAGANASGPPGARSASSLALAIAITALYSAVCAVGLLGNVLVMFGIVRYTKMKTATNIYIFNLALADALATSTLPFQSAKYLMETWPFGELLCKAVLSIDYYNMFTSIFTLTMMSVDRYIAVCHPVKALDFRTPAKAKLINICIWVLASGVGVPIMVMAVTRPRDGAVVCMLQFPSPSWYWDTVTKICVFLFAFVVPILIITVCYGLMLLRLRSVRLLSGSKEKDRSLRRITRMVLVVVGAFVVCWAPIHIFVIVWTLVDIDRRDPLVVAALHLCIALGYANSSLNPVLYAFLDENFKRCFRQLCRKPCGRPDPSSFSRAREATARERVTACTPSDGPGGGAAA

[3] = molecular target: T2, Replicative DNA helicase DnaB (Mycobacterium tuberculosis, UniProt P9WMR3); test: DnaB intein splicing inhibitors, dose response, biochemical, cell-free fluorescence (AID 449749); format: functional
T2 sequence (P9WMR3 whole entry): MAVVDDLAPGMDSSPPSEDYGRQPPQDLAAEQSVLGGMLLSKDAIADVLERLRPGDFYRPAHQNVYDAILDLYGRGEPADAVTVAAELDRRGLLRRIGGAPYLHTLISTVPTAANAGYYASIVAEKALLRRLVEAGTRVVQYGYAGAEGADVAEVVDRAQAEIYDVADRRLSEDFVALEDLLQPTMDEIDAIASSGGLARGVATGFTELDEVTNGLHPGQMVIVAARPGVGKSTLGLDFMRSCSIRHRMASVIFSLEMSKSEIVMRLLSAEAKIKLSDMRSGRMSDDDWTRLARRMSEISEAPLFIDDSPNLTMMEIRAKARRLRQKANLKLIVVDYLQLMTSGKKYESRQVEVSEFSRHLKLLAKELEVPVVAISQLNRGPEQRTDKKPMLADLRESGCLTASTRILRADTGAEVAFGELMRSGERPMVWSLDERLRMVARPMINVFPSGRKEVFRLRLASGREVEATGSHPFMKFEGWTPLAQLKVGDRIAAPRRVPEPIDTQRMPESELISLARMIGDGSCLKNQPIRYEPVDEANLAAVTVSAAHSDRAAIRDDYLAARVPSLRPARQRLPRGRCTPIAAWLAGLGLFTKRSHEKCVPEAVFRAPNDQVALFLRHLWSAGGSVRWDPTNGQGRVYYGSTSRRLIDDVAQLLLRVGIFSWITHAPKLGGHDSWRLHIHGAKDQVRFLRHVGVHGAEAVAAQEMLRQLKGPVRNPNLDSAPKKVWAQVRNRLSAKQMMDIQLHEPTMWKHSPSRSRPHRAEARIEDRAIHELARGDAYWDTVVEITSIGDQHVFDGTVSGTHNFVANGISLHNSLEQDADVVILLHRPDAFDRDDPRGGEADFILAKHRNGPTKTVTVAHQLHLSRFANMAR

[4] = molecular target: Beta-galactosidase (Escherichia coli, UniProt Q8VNN2); format: functional
Beta-galactosidase, sequence (Q8VNN2 whole entry): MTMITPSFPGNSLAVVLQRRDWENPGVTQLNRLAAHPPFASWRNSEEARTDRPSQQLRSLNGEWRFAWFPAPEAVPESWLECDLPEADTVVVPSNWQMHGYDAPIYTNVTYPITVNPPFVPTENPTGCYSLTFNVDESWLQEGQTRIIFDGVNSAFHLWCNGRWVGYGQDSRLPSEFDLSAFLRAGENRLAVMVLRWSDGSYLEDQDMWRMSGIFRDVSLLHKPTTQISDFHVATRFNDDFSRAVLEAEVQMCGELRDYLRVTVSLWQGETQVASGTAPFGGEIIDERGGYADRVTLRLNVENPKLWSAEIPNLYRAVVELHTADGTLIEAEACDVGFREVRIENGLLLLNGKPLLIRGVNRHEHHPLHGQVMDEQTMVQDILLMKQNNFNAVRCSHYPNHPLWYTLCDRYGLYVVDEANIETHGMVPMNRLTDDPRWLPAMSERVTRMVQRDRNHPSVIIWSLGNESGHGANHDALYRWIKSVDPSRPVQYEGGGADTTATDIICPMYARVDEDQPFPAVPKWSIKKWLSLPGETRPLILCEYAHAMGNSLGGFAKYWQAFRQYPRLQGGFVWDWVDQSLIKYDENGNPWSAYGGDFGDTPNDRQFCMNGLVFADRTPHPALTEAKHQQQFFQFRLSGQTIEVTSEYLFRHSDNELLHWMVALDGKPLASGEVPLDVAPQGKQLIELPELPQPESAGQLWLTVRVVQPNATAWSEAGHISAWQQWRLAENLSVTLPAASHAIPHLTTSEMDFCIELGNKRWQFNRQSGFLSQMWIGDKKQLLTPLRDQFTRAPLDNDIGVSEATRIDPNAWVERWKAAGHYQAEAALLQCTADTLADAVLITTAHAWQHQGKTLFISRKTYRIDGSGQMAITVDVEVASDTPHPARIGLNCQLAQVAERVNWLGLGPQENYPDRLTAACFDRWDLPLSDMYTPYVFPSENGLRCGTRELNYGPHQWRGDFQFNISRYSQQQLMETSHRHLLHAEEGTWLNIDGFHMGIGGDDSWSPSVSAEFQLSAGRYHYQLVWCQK

[5] = molecular target: T3, Kappa-type opioid receptor (Homo sapiens, UniProt P41145); format: functional
T3 sequence (P41145 whole entry): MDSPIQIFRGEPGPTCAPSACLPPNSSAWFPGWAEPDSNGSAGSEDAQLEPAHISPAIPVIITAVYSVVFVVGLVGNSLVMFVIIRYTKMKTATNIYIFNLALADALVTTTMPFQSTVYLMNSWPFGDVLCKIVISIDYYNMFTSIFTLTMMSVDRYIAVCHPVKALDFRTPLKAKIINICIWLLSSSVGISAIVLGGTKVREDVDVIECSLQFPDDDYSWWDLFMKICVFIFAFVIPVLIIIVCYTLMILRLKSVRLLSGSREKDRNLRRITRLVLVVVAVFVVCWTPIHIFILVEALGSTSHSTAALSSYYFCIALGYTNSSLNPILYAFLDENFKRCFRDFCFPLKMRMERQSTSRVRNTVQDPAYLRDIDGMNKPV

[6] = molecular target: T3, Kappa-type opioid receptor; format: functional; remark: listed apart in the source
[7] = loss of viability in HepG2 cells – cell-based, CellTiter-Glo, cherry-picked, cytotoxicity control for Shn3 inhibitor project, dose response (AID 624134); format: functional
[8] = non-specific 3'UTR reporter inhibition in Clone20-Shn3RL – cell-based, Renilla luciferase, cherry-picked, counter-screen for Shn3 inhibitor project, dose response (AID 624133); format: functional
[9] = molecular target: Beta Lactamase (Pseudomonas aeruginosa, UniProt Q932Y6); test: BLA reporter interference, concentration series – BLA reporter cells, FRET fluorescence, artefact control for TLR9-MyD88 binding inhibitor project, dose response (AID 588341); format: cell-based;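 also: cell based assay in CHO-K1 cells stably expressing beta-lactamase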
Beta Lactamase, sequence (Q932Y6 whole entry): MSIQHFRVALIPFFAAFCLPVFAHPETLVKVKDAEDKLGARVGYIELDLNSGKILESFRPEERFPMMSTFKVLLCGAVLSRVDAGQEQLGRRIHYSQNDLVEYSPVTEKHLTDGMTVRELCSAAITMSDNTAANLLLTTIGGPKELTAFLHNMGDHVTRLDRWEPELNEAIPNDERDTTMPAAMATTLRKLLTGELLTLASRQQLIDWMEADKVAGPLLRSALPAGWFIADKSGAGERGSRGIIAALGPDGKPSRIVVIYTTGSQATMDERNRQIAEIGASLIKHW

[10] = molecular target: T4, Protein RecA (Mycobacterium tuberculosis, UniProt P9WHJ3); test: Fluorescence Cell-Free Homogeneous Dose Retest to Identify Inhibitors of RecA-Intein Splicing Activity. [Related pubchem assays (depositor defined):AID2097, AID2223, AID489010, AID492950]; format: functional
T4 sequence (P9WHJ3 whole entry): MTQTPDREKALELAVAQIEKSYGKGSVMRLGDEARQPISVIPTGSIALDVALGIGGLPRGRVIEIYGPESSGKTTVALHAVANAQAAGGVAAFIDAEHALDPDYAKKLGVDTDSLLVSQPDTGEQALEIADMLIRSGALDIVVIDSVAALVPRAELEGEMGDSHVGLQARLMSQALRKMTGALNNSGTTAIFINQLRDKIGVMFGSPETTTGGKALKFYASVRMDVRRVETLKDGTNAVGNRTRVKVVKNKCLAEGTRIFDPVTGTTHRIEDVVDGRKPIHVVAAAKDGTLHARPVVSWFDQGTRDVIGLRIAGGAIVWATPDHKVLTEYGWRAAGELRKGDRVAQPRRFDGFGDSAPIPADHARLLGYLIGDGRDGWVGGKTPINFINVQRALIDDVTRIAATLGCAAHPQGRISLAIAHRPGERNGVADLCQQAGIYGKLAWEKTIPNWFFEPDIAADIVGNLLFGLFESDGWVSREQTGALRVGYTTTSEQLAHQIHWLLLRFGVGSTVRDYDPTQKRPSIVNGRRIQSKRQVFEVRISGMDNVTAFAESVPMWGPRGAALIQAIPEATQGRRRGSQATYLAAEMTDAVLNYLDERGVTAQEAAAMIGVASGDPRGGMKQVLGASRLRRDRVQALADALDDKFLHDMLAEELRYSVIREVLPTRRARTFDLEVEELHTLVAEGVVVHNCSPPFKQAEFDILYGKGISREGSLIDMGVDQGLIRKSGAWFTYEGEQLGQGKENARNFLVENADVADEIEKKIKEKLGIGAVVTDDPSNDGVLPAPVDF

[11] = test system: CHO; test: CHO cell viability loss, potency – luminescence, cytotoxicity control for TLR9-MyD88 binding inhibitor project, dose response (AID 588339); format: functional, cell-based, hamster; details: Cricetulus griseus;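 also: CHO cells stably coexpressing TLR9 and MyD88 fusions from primary screen; compound exposure lasted 48 hours before viability readout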
[12] = reduction of Shn3 3'UTR-driven luciferase in osteoblasts – cell-based, Clone20 osteoblasts, firefly luciferase, cherry-picked, dose response (AID 624132); format: functional;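 also: firefly luciferase luminescence from reporter carrying the Shn3 3'UTR in osteoblasts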
[13] = molecular target: Mu-type opioid receptor (Homo sapiens, UniProt P35372); test: HTS Image-Based Screen for Agonists of the MOR Receptor. [Related pubchem assays (depositor defined):AID1777, AID1785, AID1786, AID2133]; format: functional;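 also: imaging of beta-arrestin GFP recruitment into spots after receptor activation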
[14] = molecular target: T1, Delta-type opioid receptor; test: HTS Image-Based Screen for Agonists of the DOR Receptor. [Related pubchem assays (depositor defined):AID1777, AID1786, AID2133]; format: functional
[15] = molecular target: ATP-binding cassette sub-family B member 6 (Homo sapiens, UniProt Q9NP58); test: ABCB6 transporter inhibitors, porphyrin accumulation, dose response, flow cytometry, K562-ABCB6 cells, cherry pick 02 (AID 624487); format: functional; details: read-out: EC50_MICROM
ATP-binding cassette sub-family B member 6, sequence (Q9NP58 whole entry): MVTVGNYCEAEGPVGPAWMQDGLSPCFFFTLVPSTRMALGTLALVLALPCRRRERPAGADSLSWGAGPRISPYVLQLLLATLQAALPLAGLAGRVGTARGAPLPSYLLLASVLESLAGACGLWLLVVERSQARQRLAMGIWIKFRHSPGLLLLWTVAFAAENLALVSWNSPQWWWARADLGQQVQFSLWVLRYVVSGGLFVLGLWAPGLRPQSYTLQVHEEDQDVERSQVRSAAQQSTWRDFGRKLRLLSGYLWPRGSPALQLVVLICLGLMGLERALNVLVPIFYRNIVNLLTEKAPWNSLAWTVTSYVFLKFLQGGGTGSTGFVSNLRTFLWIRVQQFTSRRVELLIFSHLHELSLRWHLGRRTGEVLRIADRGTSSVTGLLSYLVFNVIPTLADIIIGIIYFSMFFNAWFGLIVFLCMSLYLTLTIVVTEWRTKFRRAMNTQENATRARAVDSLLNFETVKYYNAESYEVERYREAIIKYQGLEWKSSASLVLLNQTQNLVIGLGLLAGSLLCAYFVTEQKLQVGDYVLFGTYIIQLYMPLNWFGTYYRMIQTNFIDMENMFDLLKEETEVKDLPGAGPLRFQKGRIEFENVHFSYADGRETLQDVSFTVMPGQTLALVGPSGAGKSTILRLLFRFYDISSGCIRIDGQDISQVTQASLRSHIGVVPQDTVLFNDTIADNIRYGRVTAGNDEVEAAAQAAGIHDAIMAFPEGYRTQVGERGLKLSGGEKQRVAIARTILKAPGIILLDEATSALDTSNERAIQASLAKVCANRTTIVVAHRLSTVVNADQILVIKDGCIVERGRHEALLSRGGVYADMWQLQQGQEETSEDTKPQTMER

[16] = viability loss in HepG2 hepatoma cells – cell-based, ATP luminescence, cherry-pick, activator set 2, cytotoxicity control, dose response (AID 1053143); format: functional
[17] = molecular target: Beta-lactamase (Salmonella choleraesuis (strain SC-B67), UniProt Q5J463); test: Epi-absorbance-based counterscreen for selective VIM-2 inhibitors: dose response biochemical high throughput screening assay to identify inhibitors of TEM-1 serine-beta-lactamase.
Beta-lactamase (Salmonella choleraesuis (strain SC-B67), UniProt Q5J463), sequence (Q5J463 whole entry): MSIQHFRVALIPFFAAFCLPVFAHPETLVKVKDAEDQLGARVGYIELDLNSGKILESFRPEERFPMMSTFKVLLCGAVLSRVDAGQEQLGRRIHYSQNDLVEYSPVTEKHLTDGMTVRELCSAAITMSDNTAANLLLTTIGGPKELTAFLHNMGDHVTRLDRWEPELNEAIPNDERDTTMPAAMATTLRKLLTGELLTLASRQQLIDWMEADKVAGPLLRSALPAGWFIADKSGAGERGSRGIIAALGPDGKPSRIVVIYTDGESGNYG

[18] = molecular target: T5, Beta-lactamase (Pseudomonas aeruginosa, UniProt Q79MP6); test: inhibition of IMP-1 beta-lactamase activity – biochemical, epi-absorbance, selectivity assay for VIM-2 inhibitor project, dose response (AID 1920)
T5 sequence (Q79MP6 whole entry): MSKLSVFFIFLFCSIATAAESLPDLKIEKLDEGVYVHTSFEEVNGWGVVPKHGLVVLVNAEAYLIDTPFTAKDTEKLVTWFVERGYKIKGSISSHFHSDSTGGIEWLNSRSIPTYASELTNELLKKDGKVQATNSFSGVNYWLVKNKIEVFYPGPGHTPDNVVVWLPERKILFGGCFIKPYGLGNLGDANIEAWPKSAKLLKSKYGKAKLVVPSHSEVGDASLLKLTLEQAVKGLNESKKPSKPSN

[19] = molecular target: T5, Beta-lactamase; test: […] counterscreen for selective VIM-2 inhibitors: dose response biochemical high throughput screening assay to identify inhibitors of IMP-1 metallo-beta-lactamase.
[20] = viability loss in CEM21 cells – cell-based, plate reader, dry powder, cytotoxicity control, dose response (AID 687026); format: functional
[21] = molecular target: Beta-2 adrenergic receptor (Homo sapiens, UniProt P07550); test: Dose response for HTS for Beta-2AR agonists via FAP method from Powderset3.; format: functional
Beta-2 adrenergic receptor, sequence (P07550 whole entry): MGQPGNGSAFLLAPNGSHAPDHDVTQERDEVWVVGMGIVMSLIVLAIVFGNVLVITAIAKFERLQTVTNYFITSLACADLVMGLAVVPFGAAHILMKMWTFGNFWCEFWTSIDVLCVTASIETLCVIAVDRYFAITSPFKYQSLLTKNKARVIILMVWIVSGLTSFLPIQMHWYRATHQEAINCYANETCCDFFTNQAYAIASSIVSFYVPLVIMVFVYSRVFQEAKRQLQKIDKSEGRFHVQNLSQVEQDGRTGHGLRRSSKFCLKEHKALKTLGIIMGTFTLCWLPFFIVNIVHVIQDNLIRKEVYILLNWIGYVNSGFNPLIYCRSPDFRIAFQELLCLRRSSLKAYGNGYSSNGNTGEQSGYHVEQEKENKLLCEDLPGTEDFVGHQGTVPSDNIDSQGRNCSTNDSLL

[22] = inhibition of ADAM10 peptide cleavage – biochemical, FRET peptide substrate, recombinant human ADAM10, selectivity assay for ADAM17 exosite inhibitor project, dose response (AID 743259);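 also: ADAM10 enzyme cleaving a FRET peptide substrate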
[23] = molecular target: Disintegrin and metalloproteinase domain-containing protein 17 (Homo sapiens, UniProt P78536); test: exosite inhibitors of ADAM17, dose response, biochemical (AID 743260)
[24] = TNFa-induced NF-kB reporter signal decrease – HEK293 LMP1 reporter cells, dry powder, set 2, selectivity assay for EBV LMP1 NF-kB inhibitor project, dose response (AID 624369); format: functional
[25] = inhibitors of EBV LMP1 NF-kappaB signaling – cell-based, luciferase reporter, luminescence, dry powder, set 2, dose response (AID 624376); format: functional
[26] = cytotoxicity in HEK293 background cells – cell-based, dry powder, set 2, counter-screen for EBV LMP1 inhibitor project, dose response (AID 624374); format: functional
[27] = molecular target: Protein disulfide-isomerase (Homo sapiens, UniProt P07237); test: inhibition of PDI-mediated insulin reduction – biochemical, turbidity, dry powder samples, set 2, confirmation (AID 652146)
Protein disulfide-isomerase, sequence (P07237 whole entry): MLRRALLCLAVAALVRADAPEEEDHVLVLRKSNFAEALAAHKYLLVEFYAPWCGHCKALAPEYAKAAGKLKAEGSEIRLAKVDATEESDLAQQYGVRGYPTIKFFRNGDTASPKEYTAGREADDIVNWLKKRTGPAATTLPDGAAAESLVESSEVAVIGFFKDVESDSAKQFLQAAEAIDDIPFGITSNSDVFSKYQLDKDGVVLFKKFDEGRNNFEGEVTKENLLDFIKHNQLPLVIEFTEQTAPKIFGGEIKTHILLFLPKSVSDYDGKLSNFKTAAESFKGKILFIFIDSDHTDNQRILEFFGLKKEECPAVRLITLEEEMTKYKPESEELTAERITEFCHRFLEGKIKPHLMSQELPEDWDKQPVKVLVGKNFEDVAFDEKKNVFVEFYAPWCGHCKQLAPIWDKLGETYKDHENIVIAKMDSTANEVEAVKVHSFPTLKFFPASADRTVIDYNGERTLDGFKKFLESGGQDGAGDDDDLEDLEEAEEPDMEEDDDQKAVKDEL

[28] = viability loss in MITF-independent A375 cells – cell-based, CellTiter-Glo luminescence, dry powder, set 2, counter-screen for MITF inhibitor project, dose response (AID 624489); format: functional; details: A-375;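 also: actives are compounds lowering A375 viability meaning general cytotoxicity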
[29] = cytotoxicity in MITF-independent A375 cells – cell-based, CellTiter-Glo luminescence, dry powder, set 4, counter-screen for MITF inhibitor project, dose response (AID 624364); format: functional; details: A-375;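 also: A375 melanoma cells are MITF independent so this is a counter screen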
[30] = inhibitors of TRPM1-promoter reporter in SK-MEL-5 – cell-based, luciferase, dry powder, set 9, MITF inhibitor project, dose response (AID 651588); format: functional
[31] = growth inhibition of MALME3 cells – cell-based, CellTiter-Glo luminescence, dry powder, set 5, orthogonal assay for MITF inhibitor project, dose response (AID 651584); format: functional; details: MALME-3
[32] = cytotoxicity in MITF-independent A375 cells – cell-based, CellTiter-Glo luminescence, dry powder, set 9, counter-screen for MITF modulator project, dose response (AID 651591); format: functional; details: A-375
[33] = MITF Orthogonal Assay: MALME3 CTG Assay Measured in Cell-Based System Using Plate Reader - 2084-04_Inhibitor_Dose_DryPowder_Activity_Set6.; format: functional; details: MALME-3
[34] = MITF: Counter assay: A375 proliferation Measured in Cell-Based System Using Plate Reader - 2084-03_Inhibitor_Dose_DryPowder_Activity_Set8.; format: functional; details: A-375
[35] = MITF Orthogonal Assay: SK-MEL-5 CTG Assay Measured in Cell-Based System Using Plate Reader - 2084-02_Inhibitor_Dose_DryPowder_Activity_Set7.; format: functional
[36] = inhibitors of TRPM1-promoter reporter in SK-MEL-5 – cell-based, luciferase, dry powder, set 8, MITF inhibitor project, dose response (AID 624430); format: functional
[37] = growth inhibition of SK-MEL-5 melanoma cells – cell-based, CellTiter-Glo luminescence, dry powder, set 8, orthogonal assay for MITF inhibitor project, dose response (AID 651586); format: functional
[38] = molecular target: NS3 (Hepatitis C virus, UniProt A3EZJ3); test: NS3h DNA-binding inhibition IC50 – biochemical, fluorescence polarization, ChemBridge library, dose response (AID 743264)
NS3, sequence (A3EZJ3 whole entry): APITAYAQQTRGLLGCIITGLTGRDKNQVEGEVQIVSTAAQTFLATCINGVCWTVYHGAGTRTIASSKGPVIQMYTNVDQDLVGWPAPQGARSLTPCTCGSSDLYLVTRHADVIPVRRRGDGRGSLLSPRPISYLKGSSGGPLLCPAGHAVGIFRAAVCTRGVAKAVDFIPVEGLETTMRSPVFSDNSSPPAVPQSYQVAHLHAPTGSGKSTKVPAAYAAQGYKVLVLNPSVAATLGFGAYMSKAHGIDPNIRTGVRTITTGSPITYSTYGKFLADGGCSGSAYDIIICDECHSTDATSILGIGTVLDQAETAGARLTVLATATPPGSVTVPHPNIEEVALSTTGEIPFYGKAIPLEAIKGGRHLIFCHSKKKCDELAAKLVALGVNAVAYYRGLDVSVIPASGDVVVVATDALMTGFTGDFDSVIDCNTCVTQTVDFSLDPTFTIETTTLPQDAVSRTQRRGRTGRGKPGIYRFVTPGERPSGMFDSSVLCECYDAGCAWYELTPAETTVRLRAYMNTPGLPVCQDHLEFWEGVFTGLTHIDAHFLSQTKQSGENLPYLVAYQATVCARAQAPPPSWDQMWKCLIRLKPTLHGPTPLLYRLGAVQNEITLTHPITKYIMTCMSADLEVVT

CCc1ccc(NC(=O)c2nc(S(=O)(=O)Cc3ccccc3)ncc2Cl)cc1
AC50 [1]: 1.74 µM (active)
IC50 [2]: 11.9 µM (inactive)
AC50 [3]: 2.28 µM (active)
EC50 [4]: > 31.5 µM (inactive)
IC50 [5]: 7.28 µM
IC50 [6]: 13.7 µM (active)
AC50 [7]: 24.4 µM (active)
AC50 [8]: 8.1 µM (active)
IC50 [9]: 12.1 µM (inactive)
EC50 [10]: 1.82 µM (active)
IC50 [11]: 2.91 µM (active)
AC50 [12]: 0.551 µM (active)
EC50 [13]: > 32 µM (inactive)
EC50 [14]: > 32 µM (inactive)
EC50 [15]: 23.9 µM (active)

COc1cccc(NC(=O)c2ccc3c(c2)N(C)CCS3)c1
AC50 [16]: 26 µM (active)

S=c1[nH]nc(C2CC2)n1Cc1ccccc1
IC50 [17]: > 59.6 µM (inactive)
IC50 [18]: > 59.6 µM (inactive)
IC50 [19]: > 59.6 µM (inactive)

Nc1nonc1C(=O)NCCNCc1c(OCc2ccccc2F)ccc2ccccc12
AC50 [20]: > 70 µM (inactive) and 60.8 µM (active)

COCc1ccc(CN2CCCC(C(=O)Nc3ccc(-c4cccc(OC)c4)cc3)C2)o1 (stereo not drawn)
EC50 [21]: 607 µM (inactive)

COc1ccc(C(c2nnnn2Cc2ccccc2)N2CCN(C/C=C/c3ccccc3)CC2)cc1 (stereo not drawn)
IC50 [22]: > 69.5 µM (inactive)
IC50 [23]: > 69.5 µM (inactive)

O=C(C[C@@H]1CC[C@H]2[C@@H](COC[C@H](O)CN2Cc2ccc(Oc3ccccc3)cc2)O1)N1CCc2ccccc2C1
AbsAC35 [24]: 67.78 µM

COc1cccc(S(=O)(=O)N(C)C[C@@H]2Oc3cc(C4=CCCCC4)ccc3S(=O)(=O)N([C@@H](C)CO)C[C@@H]2C)c1
AbsAC35 [25]: 50.42 µM

CC(C)(C)[S@@+]([O-])N1Cc2cc(C(=O)NCc3ccccc3F)nc(-c3cccc(-c4cccnc4)c3)c2[C@H]1CCO
AbsAC35 [26]: 245.66 µM

C/C1=C\C[C@H](OC(=O)c2ccc(O)cc2)/C(C)=C/[C@@H](O)C(C)(C)CCC1
AC50 [27]: 2 µM (active)

O=C1C(NS(=O)(=O)c2ccc(Br)s2)=C(N2CCOCC2)C(=O)c2ccccc21
AC50 [28]: > 70 µM (inactive)
AC50 [29]: > 70 µM (inactive)

CCN1CCN(C2=C(Nc3ccc(F)cc3F)C(=O)c3ccccc3C2=O)CC1
AC50 [30]: 12.3 µM (active)
AC50 [31]: 26.3 µM (active)
AC50 [32]: > 70 µM (inactive)
AC50 [33]: 26.3 µM (active)
AC50 [34]: > 70 µM (inactive)
AC50 [35]: 8.99 µM (active)
AC50 [36]: 2.41 µM (active)
AC50 [37]: > 70 µM (inactive)

O=C1NC(=O)C(=Cc2ccc(-c3cc([N+](=O)[O-])ccc3O)o2)C(=O)N1
IC50 [38]: 66.1 µM (active)
